ChEMBL document CHEMBL2046288, “Cristatumins A-D, new indole alkaloids from the marine-derived endophytic fungus Eurotium cristatum EN-220” (2012)
In brackets after ≈: the same amount, converted by molar mass. Each block holds one molecule with its values, some of them ahead of it.

Assays:
Type in all cases: functional
Staphylococcus aureus [1] = experiment: Antibacterial activity against Staphylococcus aureus by well diffusion method
Escherichia coli = experiment: Antibacterial activity against Escherichia coli by well diffusion method
Artemia salina = experiment: Insecticidal activity against Artemia salina; conditions: read-out: LD50 (the source's name)
Staphylococcus aureus [2] = experiment: Antibacterial activity against Staphylococcus aureus assessed as inhibition zone at 100 ug/disc by well diffusion method; conditions: read-out: IZ

- MIC (Staphylococcus aureus [1]): 8 µg/mL (≈ 20.3 µM)
SMILES: C=CC(C)(C)c1[nH]c2ccc(CC=C(C)C)cc2c1C[C@@H]1NC(=O)[C@H](C)NC1=O [TARDIOXOPIPERAZINE A]

SMILES: O=C(N[C@H](CO)[C@H](O)c1ccc([N+](=O)[O-])cc1)C(Cl)Cl [CHLORAMPHENICOL]
- MIC (Escherichia coli): 4 µg/mL (≈ 12.4 µM)
- MIC (Staphylococcus aureus [1]): 4 µg/mL (≈ 12.4 µM)

SMILES: C=CC(C)(C)c1[nH]c2ccc(CC=C(C)C)cc2c1/C=C1\NC(=O)[C@H](C)NC1=O [ISOECHINULIN A]
- LC50 (Artemia salina): 16.9 µg/mL (≈ 43.2 µM)

- MIC (Escherichia coli): 64 µg/mL (≈ 189 µM)
SMILES: C=CC(C)(C)c1[nH]c2ccccc2c1/C=C1\NC(=O)[C@H](CO)NC1=O [CRISTATUMIN A]

SMILES: C=CC(C)(C)c1[nH]c2c(CC=C(C)C)cc(CC=C(C)C)cc2c1C[C@@H]1NC(=O)[C@H](C)NC1=O [ECHINULIN]
- zone of inhibition at 100 µg/disc (Staphylococcus aureus [2]): 8 mm

SMILES: C=CC(C)(C)c1[nH]c2ccccc2c1/C=C(\NC(=O)C(N)=O)C(=O)OC [CRISTATUMIN D]
- zone of inhibition at 100 µg/disc (Staphylococcus aureus [2]): 8 mm

SMILES: C=CC(C)(C)c1[nH]c2c(CC=C(C)C)cc(CC=C(C)C)cc2c1C[C@@H]1NC(=O)[C@H](CO)NC1=O [CRISTATUMIN B]
- LC50 (Artemia salina): 74.4 µg/mL (≈ 156 µM)

SMILES: C=CC(C)(C)c1[nH]c2c(CC=C(C)C)cccc2c1/C=C1\NC(=O)[C@H](C)NC1=O [VARIECOLORIN G]
- LC50 (Artemia salina): 42.6 µg/mL (≈ 109 µM)
